The test system of test [1] is Schizosaccharomyces pombe. The test is described as follows: Filter disc assay on a lawn of S. pombe. It is filed as cell-based. As to conditions: for bioactivity against S. pombe (haloes/zones of inhibition), relative: zinc complexed versus zinc-free form, tested in parallel. Here is the method:
The silica powder with the S149 compound adsorbed onto it was divided into two equal portions of ˜7.5 g and each portion was used in normal phase “flash” chromatography using a Biotage™ Isolera™ machine and a Biotage™ KP-Sil 50 g column. A chloroform-methanol gradient was used to elute the bound material from the silica in which the percentage of methanol went from 0%-100%. No formic acid was added to the solvents as this degrades the bioactive compound. The eluate from the column was fractionated and the presence of the bioactive compound (S149) determined using the “Filter disc assay” method as described in the “Materials and Methods” of Lewis et al., 2017. The active fractions eluted from the two normal phase chromatography columns were pooled, and after removal of the solvent using a GeneVac™ Series U system equipped with a GeneVac™ VC3000TA condenser unit, the dried material was resuspended in 5 ml of methanol which was loaded onto a size exclusion column. The column was run at a flow rate of 1 ml/min with 1,200 ml of methanol and the eluate fractionated. The bioactive fractions, as determined using the “Filter disc assay” method as described in the “Materials and Methods” of Lewis et al., 2017, were pooled to give ˜15 ml of material which was diluted with 60 ml of water to give 75 ml of a 20% methanol solution. This was used in reverse phase chromatography using a Biotage™ Isolera™ chromatography machine in which the bioactive material was loaded by injection onto a C18 SNAP Ultra 12 g Biotage™ column and eluted using an acetonitrile-water gradient where the percentage of acetonitrile was increased from 20%-100%.
An example of the u.v. absorbance pattern (λ=254 nm) is shown in FIG. 1 and indicates the presence of four peaks labelled 0-3. An integrated fraction collector was used to peak-pick material and collect column eluate corresponding to the peaks which were then bioassayed using the “Filter disc assay” method as described in the “Materials and Methods” of Lewis el al., 2017.

For test [2], the target named is forkhead transcription factor, Foxo3a (Homo sapiens, UniProt O43524). The note with it: published by Kawahara et al., 2015; cited from earlier work.
Sequence of forkhead transcription factor, Foxo3a (O43524 whole entry): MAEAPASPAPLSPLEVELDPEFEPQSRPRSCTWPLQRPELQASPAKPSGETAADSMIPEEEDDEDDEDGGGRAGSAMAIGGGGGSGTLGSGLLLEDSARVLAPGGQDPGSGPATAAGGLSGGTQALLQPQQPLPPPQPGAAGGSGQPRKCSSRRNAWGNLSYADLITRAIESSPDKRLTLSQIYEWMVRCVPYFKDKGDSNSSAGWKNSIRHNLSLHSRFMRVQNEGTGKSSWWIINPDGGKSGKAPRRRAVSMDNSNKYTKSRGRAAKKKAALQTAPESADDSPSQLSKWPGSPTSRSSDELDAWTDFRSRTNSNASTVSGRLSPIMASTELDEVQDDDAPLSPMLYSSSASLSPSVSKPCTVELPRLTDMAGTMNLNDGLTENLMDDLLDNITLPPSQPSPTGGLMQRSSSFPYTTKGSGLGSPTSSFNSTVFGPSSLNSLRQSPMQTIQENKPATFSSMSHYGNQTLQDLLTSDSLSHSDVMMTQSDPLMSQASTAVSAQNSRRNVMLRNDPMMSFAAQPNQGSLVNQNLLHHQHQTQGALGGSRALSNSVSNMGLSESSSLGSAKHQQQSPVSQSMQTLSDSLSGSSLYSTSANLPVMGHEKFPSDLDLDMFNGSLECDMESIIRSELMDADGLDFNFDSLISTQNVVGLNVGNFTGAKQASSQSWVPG

Regarding `CC(=O)O[C@@H]([C@H](CCCN(O)N=O)NC(=O)[C@H]1N=C([C@H](C)N(C)C)O[C@@H]1C)C(C)(C)C(=O)O[C@H](C(=O)C1=C(O)[C@H](C)N(C)C1=O)C(C)C` [JBIR-141], in test [1] (filter discs impregnated with HPLC peak material), the “time for haloes in the S. pombe lawn around impregnated discs to develop” value was about 48 h. The “bioactivity against S. pombe (haloes/zones of inhibition), relative” value is recorded as “not as bioactive as the zinc complexed form” in test [1], “not as bioactive as the zinc complexed form” in test [1] (listed as JBIR 141) and “lower than the bioactivity of the material from the other peaks” in test [1] (listed as Peak 0). Moreover, in test [2], the “inhibition of the transcriptional activity of Foxo3a” value was “possess the ability to inhibit the transcriptional activity”.
`CC(=O)O[C@@H]([C@H](C[C@@H](O)CN(O)N=O)NC(=O)[C@H]1N=C([C@H](C)N(C)C)O[C@@H]1C)C(C)(C)C(=O)O[C@H](C(=O)C1=C(O)[C@H](C)N(C)C1=O)C(C)C` [JBIR-142]: in test [2], the “inhibition of the transcriptional activity of Foxo3a” value is given as “possess the ability to inhibit the transcriptional activity”.

Source of the values: patent US20230181745A1, “ZINC COMPLEXES AND THEIR USES” (Demuris Limited, priority 2020, published 2023).
